Read-outs that look alike come from different tables or passages of the source. Marks after values point to notes of the source that are not given here.
Legend:
[1] = First anodic oxidation potential by differential pulse voltammetry (DPV); assay type: physicochemical; settings: for Anodic Peak Potential Epa: DPV, first anodic peak, 0.25 mM standard in 0.1 M Britton-Robinson buffer pH 6.0 in 80% methanol, glassy carbon vs Ag/AgCl, 100 mV/s
Experimental: A potentiostat/galvanostat G 750 (Gamry Instruments, Warminster, USA) was used for voltametric experiments. A conventional three-electrode system: a 3 mm diameter glassy carbon working electrode (BAS MF-2012), an Ag/AgCl electrode as a reference electrode, and a platinum as counter electrode, was used in the study. Differential pulse voltametric experiments were performed with phenolic acids and flavonoids prepared in a 1:1 (v/v) mixture of 500 µM standard solution and […] Britton-Robinson (B-R) buffer (pH 6.0 in 80% methanol), which also served as a supporting electrolyte. The voltametric experiments were performed at room temperature using an electrochemical cell (volume 200 µL), to which the analyzed standard solution, mixed previously with the buffer solution, was introduced. The differential pulse voltammograms were acquired in the range of −100 to 1300 mV at a scanning rate of 100 mV/s. Before use, the surface of the glassy carbon electrode was carefully polished with 0.05 µm alumina paste, ultrasonically rinsed in deionized water, and then washed with methanol. This procedure was repeated after each cycle. For test purposes, the first anodic oxidation potential was recorded (mV).

[2] = target: T1, Angiotensin-converting enzymes (ACE) from porcine kidneys (EC 3.4.15.1) (Sus scrofa, UniProt F1RRW5); experiment: biochemical; settings: for lower IC50 in relation to the respective aglycone / higher value of IC50 as compared to the IC50 of the respective aglycon: ACE inhibition; for lower IC50 in relation to the respective aglycone: glycoside vs aglycon; for higher value of IC50 as compared to the IC50 of the respective aglycon: glucoside vs aglycon
T1 construct: Angiotensin-converting enzymes (ACE) from porcine kidneys (EC 3.4.15.1) were purchased from Sigma-Aldrich; purchased Sigma-Aldrich (St. Louis, MO, USA); host or cells: porcine kidneys (tissue-derived enzyme)
T1 sequence (F1RRW5 34-1309): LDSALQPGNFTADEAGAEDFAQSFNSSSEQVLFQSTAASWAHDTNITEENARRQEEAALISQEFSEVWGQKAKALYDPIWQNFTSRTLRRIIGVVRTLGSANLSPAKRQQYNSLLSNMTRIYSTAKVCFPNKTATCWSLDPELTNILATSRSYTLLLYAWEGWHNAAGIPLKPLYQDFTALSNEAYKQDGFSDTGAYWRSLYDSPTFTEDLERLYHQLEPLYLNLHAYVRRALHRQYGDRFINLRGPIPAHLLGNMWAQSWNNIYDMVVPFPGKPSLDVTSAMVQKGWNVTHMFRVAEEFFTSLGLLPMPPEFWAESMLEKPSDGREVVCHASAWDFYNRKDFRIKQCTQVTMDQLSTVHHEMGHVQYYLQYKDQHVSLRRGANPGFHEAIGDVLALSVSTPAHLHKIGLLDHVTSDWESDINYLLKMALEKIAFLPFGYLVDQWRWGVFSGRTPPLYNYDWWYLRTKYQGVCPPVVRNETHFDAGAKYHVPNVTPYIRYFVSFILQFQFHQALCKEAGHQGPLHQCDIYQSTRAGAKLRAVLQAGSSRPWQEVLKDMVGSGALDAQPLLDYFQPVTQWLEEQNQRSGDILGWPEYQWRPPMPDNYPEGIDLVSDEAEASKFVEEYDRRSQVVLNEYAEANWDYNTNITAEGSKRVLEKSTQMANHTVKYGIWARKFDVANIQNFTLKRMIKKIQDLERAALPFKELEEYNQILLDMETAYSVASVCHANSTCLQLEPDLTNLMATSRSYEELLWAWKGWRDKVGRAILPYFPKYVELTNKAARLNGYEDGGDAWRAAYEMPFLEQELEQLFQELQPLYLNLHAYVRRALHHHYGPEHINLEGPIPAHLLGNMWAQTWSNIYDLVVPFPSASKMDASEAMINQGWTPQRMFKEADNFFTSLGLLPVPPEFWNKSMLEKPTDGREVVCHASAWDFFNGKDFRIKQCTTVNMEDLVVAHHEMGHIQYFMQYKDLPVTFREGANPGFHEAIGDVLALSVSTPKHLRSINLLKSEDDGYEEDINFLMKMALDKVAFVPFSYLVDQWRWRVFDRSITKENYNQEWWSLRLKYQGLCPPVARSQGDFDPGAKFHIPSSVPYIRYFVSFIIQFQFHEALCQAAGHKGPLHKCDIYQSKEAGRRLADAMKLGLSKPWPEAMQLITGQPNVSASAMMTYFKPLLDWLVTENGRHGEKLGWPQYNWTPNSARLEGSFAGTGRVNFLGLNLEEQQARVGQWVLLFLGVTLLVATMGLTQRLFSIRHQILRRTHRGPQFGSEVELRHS
Experimental: Angiotensin-converting enzymes (ACE) from porcine kidneys (EC 3.4.15.1) were purchased from Sigma-Aldrich (St. Louis, MO, USA). A three-tris-base buffer was as follows: buffer A: 300 mM Tris-base buffer (pH 8.3) with 2 mM ZnCl2; buffer B: 150 mM Tris-base buffer (pH 8,3); and buffer C: 150 mM Tris-base buffer (pH 8.3) with […] NaCl. The substrate o-aminobenzoylglycyl-p-nitorphenylalanylproline (Abz-Gly-Phe(NO2)-Pro) was obtained from BACHEM (Bubendorf, Switzerland). Standards of phenolic acids, flavonoids, glucosides, and low-molecular-weight phenolic metabolites were obtained from Sigma-Aldrich (St. Louis, MO, USA) and Extrasynthese (Genay, France). Water was purified using the Mili-Q system (Milipore, Bedford, MA, USA).
Stock solutions at 1 mM of selected phenolic acids, flavonoids, their O-glucosides, and low-molecular-weight phenolic metabolites were prepared in 80% methanol. The concentration was confirmed by a UV measurement according to Franke et al.. A wide range of concentrations of each compound was prepared by serial dilutions in deionized water to determine the IC50 value. […] The ACE inhibitory activity was obtained from three repetitions (n = 3) for each concentration.
Angiotensin-converting enzyme (ACE) activity inhibitory assay was performed according to the method of Sentandreu and Toldra. The procedure was based on the hydrolysis of the internally quenched substrate o-aminobenzoylglycyl-p-nitorphenylalanylproline (Abz-Gly-Phe(NO2)-Pro) by the reaction of ACE. The fluorescence generated by the liberation of the product (the o-aminobenzoylglycine group) was read in a microplate multiscan fluorometer. The production of fluorescence was inhibited by the presence of functional compounds with an ACE inhibitory effect. The fluorescence was measured immediately after mixing (0 min) and then after 30 min of reaction at an excitation of 365 nm and an emission of 405 nm. To calculate the % of inhibition of ACE, the following equation was used:Relative ACE activity% = 100 − (ΔRFUsample × 100/ΔRFUnegative control), where ΔRFU = RFU at time 30 – RFU at time 0.

ACE = tested on: ACE; set-up: method as in PMID 23185345; settings: same fluorometric method as this study; read-out: IC50 (ACE inhibition); cited from earlier work
[3] = IC50 Value (ACE inhibitory activity), porcine kidney ACE, substrate Abz-Gly-Phe(NO2)-Pro, fluorescence after 30 min, mean ± SD
[4] = porcine kidney ACE, substrate Abz-Gly-Phe(NO2)-Pro, fluorescence after 30 min, mean ± SD, read-out: IC50 Value (ACE inhibitory activity)

SMILES	Anodic Peak Potential Epa [1]	IC50 [2, 4]	also measured
O=c1cc(-c2ccc(O)cc2)oc2cc(O)cc(O)c12 [Apigenin]	810 ± 6 ^c mV		IC50 [2, 3]: 0.337 ± 0.00372 mM; IC50 (ACE): 196 µM
O=c1c(O)c(-c2ccc(O)cc2)oc2cc(OC3OC(CO)C(O)C(O)C3O)cc(O)c12 (stereo not drawn) [Kaempferol-7-O-glucoside]	419 ± 6 ^f mV	0.0977 ± 0.00208 mM	lower IC50 in relation to the respective aglycone [2]: 26%
O=c1c(O)c(-c2ccc(O)cc2)oc2cc(O)cc(O)c12 [Kaempferol]	394 ± 4 ^g mV	0.132 ± 0.00247 mM	IC50 (ACE): 178 µM
O=c1cc(-c2ccc(OC3OC(CO)C(O)C(O)C3O)c(O)c2)oc2cc(O)cc(O)c12 (stereo not drawn) [Luteolin-4′-O-glucoside]	828 ± 5 ^b mV	0.0889 ± 0.00168 mM	higher value of IC50 as compared to the IC50 of the respective aglycon [2]: 15%
O=c1cc(-c2ccc(O)c(O)c2)oc2cc(OC3OC(CO)C(O)C(O)C3O)cc(O)c12 (stereo not drawn) [Luteolin-7-O-glucoside]	445 ± 3 ^e mV		lower IC50 in relation to the respective aglycone [2]: 20%; IC50 [2, 3]: 0.0615 ± 0.00162 mM
COC(=O)CCc1ccc(O)cc1 [MET, 3-(4-hydroxyphenyl)propionic methyl ester]	574 ± 5 ^f mV	0.726 ± 0.00571 mM	antioxidant power class based on the first oxidation potential ([1]; low-molecular-weight phenolic metabolites, classes according to Blasco et al. [47]): moderate antioxidant power (moderate antioxidant power (0.3 V < Epa < 0.8 V))
O=C1CC(c2ccc(O)cc2)Oc2cc(OC3OC(CO)C(O)C(O)C3O)cc(O)c21 (stereo not drawn) [Naringenin-7-O-glucoside]	830 ± 8 ^ab mV	0.3572 ± 0.00199 mM	lower IC50 in relation to the respective aglycone [2]: 9%
O=C1C[C@@H](c2ccc(O)cc2)Oc2cc(O)cc(O)c21 [Naringenin]	819 ± 7 ^bc mV	0.391 mM	
OCC1OC(Oc2cc3c(O)cc(O)cc3[o+]c2-c2ccc(O)cc2)C(O)C(O)C1O (stereo not drawn) [Pelargonidin-3-O-glucoside]	473 ± 5 ^d mV	0.3769 ± 0.00261 mM	higher value of IC50 as compared to the IC50 of the respective aglycon [2]: 29%
Oc1ccc(-c2[o+]c3cc(O)cc(O)c3cc2O)cc1 [Pelargonidin]	228 ± 5 ^j mV	0.293 ± 0.0034 mM	
O=C(O)c1ccc(O)c(O)c1 [Protocatechuic acid]	417 ± 12 ^e mV	6.235 ± 0.042 mM	Anodic Peak Potential Epa ([1]; listed as protocatechuic acid): 417 mV; IC50 ([2]; values of this study restated in mM in the discussion, read-out: IC50 (ACE inhibition)): 6.24 mM
O=c1c(O)c(-c2ccc(O)c(O)c2)oc2cc(O)cc(O)c12 [Quercetin]	330 ± 4 ^g mV	0.121 ± 0.00156 mM	
COc1cc(/C=C/C(=O)O)cc(OC)c1O [Sinapic acid]	618 ± 7 ^c mV		IC50 [2, 3]: 0.493 ± 0.00614 mM
COc1cc(C(=O)O)cc(OC)c1O [Syringic acid]	731 ± 9 ^a mV	2.76 ± 0.0363 mM	
COc1cc(C(=O)O)ccc1O [Vanillic acid]	748 ± 10 ^a mV	4.11 ± 0.0483 mM	Anodic Peak Potential Epa ([1]; listed as vanillic acid): 748 mV
O=C(O)C=Cc1ccc(O)cc1 [p-Coumaric acid]	672 ± 10 ^b mV	0.315 ± 0.0098 mM	Anodic Peak Potential Epa ([1]; listed as p-coumaric acid): 672 mV
C[C@@H]1O[C@@H](O[C@H]2[C@H](Oc3cc(O)c4c(=O)cc(-c5ccc(O)cc5)oc4c3)O[C@H](CO)[C@@H](O)[C@@H]2O)[C@H](O)[C@H](O)[C@H]1O [rhoifolin, reference compound]			IC50 (ACE): 183 µM
